Results reported in paper PMC10218498, “Exploring BenzylethoxyAryl Urea Scaffolds for Multitarget Immunomodulation Therapies” (International Journal of Molecular Sciences, 2023).
Where two headings read alike, the source gives them in different places.

Assays:
[1] = tested on: A-549 (pulmonary adenocarcinoma); assay: MTT cell proliferation assay, A-549; assay type: cell-based, human; settings: for IC50: Homo sapiens, read-out: IC50 A-549; for SI (A-549) (IC50HEK293/A-549): selectivity index
Protocol: (§1) The 3-(4,5-dimethylthiazol-2-yl)-2,5-diphenyltetrazolium bromide (MTT; Sigma Chemical Co.) dye reduction assay in 96-well microplates was used. […] After that, the supernatant was discarded and replaced by 100 µL of DMSO to dissolve formazan crystals. The absorbance was then read at 550 nm by spectrophotometry. For all concentrations of compound, cell viability was expressed as the percentage of the ratio between the mean absorbance of treated cells and the mean absorbance of untreated cells. Three independent experiments were performed, and the IC50 values (i.e., concentration half inhibiting cell proliferation) were graphically determined using GraphPad Prism 4 software.

[2] = tested on: MCF-7 (Human breast cancer adenocarcinoma); assay: MTT cell proliferation assay, MCF-7; assay type: cell-based; settings: for IC50: Homo sapiens; for SI (MCF-7): selectivity index vs HEK-293
Protocol: as §1

HT-29 cells = assay: Cancer cell viability in monoculture and co-cultures with THP-1 by flow cytometry; assay type: cell-based, human; settings: for morphological changes of HT-29 cells: 48 h co-culture with THP-1 at (1:5); for viability at 20 µM: Homo sapiens
Protocol: We also studied the effect of the selected compounds on tumor cell proliferation in the presence of human monocytic leukemia cell line THP-1. This assay was carried out using HT-29 as the cancer cell line and different proportions of immune cells. Standard proportions for this assay were 1:5 cancer/immune cells. Additionally, we also carried out this assay using a 2:1 proportion of cancer cells as regards immune THP-1 cells. Assays were performed after 24 and 48 h of treatment, using 20 μM doses of selected compounds and BMS-8 as the reference compound.
First, to study the effect of the compounds on the cell viability in monoculture, 10^5 of cancer cell line per well were seeded and incubated for 24 h; then, the corresponding compound at 20 μM or DMSO for the positive control were added. After 24 h of incubation, cancer cells were collected with trypsin and fixed with 4% in PBS paraformaldehyde and counted by flow cytometry.
On the other hand, to study the effect of the compounds on the cell viability in co-culture with THP-1 cells, 10^5 or 2 × 10^5 of the HT-29 cells line per well were seeded and incubated for 24 h, then the medium was changed by one cell culture medium supplemented with IFN-γ (10 ng/mL; human, Invitrogen®, Waltham, MA, USA) and containing 5 × 10^5 or 105, respectively, of THP-1 per well and the corresponding compound at 20 μM or DMSO for the positive control. After 24 h/48 h of incubation, supernatants were collected to determine THP-1 living cells. Additionally, stain cancer cells were collected with trypsin. Both types of suspension cells were fixed with 4% in PBS paraformaldehyde and counted by flow cytometry.

PD-L1 [3] = target: T1, PD-L1 (Homo sapiens, UniProt Q9NZQ7); assay: PD-L1 relative quantification by flow cytometry in HT-29; assay type: cell-based; set-up: endogenous in cells; host or cells: HT-29; settings: 24 h; for Total PD-L1 (%): relative to DMSO control = 100; for inhibition at 20 µM: read-out: inhibition rate of PD-L1
Protocol: (§2) To assess the effect of the selected compounds on the biological targets PD-L1 and VEFGR-2, we performed the study on both cancer cell lines HT-29 and A-549 and by flow cytometry technique. […] For these assays, cells were incubated for 24 h in the presence of the corresponding compounds at 20 µM concentration.
(§3) To study the effect of the compounds on every biological target in cancer cell lines, the compounds were used at 20 µM dose.
(§4) For the assay, 10^5 cells per well were incubated for 24 h with the corresponding dose of the tested compound in a total volume of 500 μL of their growth media.
(§5) On the one hand, to detect total PD-L1 and VEGFR-2, after the cell treatments, they were collected and fixed with 4% in PBS paraformaldehyde. After fixation, a treatment with 0.5% in PBS TritonTM X-100 was performed, and finally, cells were stained with FITC Mouse monoclonal Anti-Human VEGFR-2 (ab184903) and Alexa Fluor® 647 Rabbit monoclonal Anti-PD-L1 (ab215251).
(§6) On the other hand, to detect membrane PD-L1 and VEGFR-2, the process was the same, avoiding the treatment with 0.5% in PBS TritonTM X-100 step.

PD-L1 [4] = target: T1, PD-L1; assay: PD-L1 relative quantification by flow cytometry in A-549; assay type: cell-based; set-up: endogenous in cells; host or cells: A-549; settings: A-549, 20 µM, 24 h, relative to DMSO control = 100
Protocol: as §2, §3, §4, §5, §6

Fyn = assay: Immunoblotting of OT-1 CTL signaling proteins: FYN; assay type: cell-based, mice; settings: OT-1, 20 μM, 24 h
Source text: We next studied the effect of our compounds on the signaling cascade downstream of the TCR. […] However, both the expression and phosphorylation of LCK were increased in response to all compounds. The effects on ZAP70 and LAT were more complex, with opposing effects on total protein expression versus phosphorylation. Thus, all compounds modulated signaling downstream of the TCR in a manner that is likely to impact T-cell activation and activity.
CD8+ cells were obtained from the inguinal, axillary, brachial, and mesenteric lymph nodes previously collected from OT-1 mice. Lymph node cells were isolated by mashing through a […] cell strainer. Cells were resuspended in IMDM cell media at a concentration of 0.3 million cells/mL. N4 ovalbumin peptide was added at a concentration of 10 nM, and cells were incubated for 48 h at 5% CO2, 37 °C. On day 2 from recollection, cells were pelleted at 1300 rpm for 5 min and washed with PBS to remove N4 peptide. The cell pellet was resuspended in fresh IMDM media in a new flask in a 0.3 million cells/mL and supplemented with IL-2 at 20 ng/mL. After incubation for a further 48 h (day 4), cells were re-seeded in fresh IMDM media at a concentration of 0.3 million cells/mL supplemented with IL-2 at 20 ng/mL. Cells were cultured for a further 48 h prior to use on day 6 in functional assays.
To study the effect of the compounds in the signaling pathway of CTLs, the compound was incubated for 24 h at 20 μM. After this time, cells were collected and washed twice in PBS and lysed in radioimmunoprecipitation assay (RIPA) lysis buffer (50 mM tris-HCl at pH 7.4, 150 mM sodium chloride, 5 mM EGTA, 0.1% SDS, 1% NP-40, and 1% deoxycholate) supplemented with a protease and phosphatase inhibitor cocktail (mini complete ULTRA Protease tablet and phosSTOP tablet from Roche, Basel, Switzerland). Lysates were clarified by high-speed centrifugation (17,000 rpm for 15 min at 4 °C). Protein concentration was measured using a Micro BCA Protein Assay (Thermo Scientific, Waltham, MA, USA), and 10 μg to 30 μg of total protein were supplemented with 2X SDS sample buffer [tris (pH 6.8), 20% glycerol, 5% SDS, b-mercaptoethanol, and bromophenol blue) and boiled at 95 °C for 5 min. […] Bound Ab was detected by incubation with anti-rabbit and anti-mouse horseradish peroxidase secondary Ab (Cell Signaling Technology) and visualized using the Bio-Rad ChemiDoc MP Imaging System.

[5] = MCF7, MTT, read-out: IC50 (μM) MCF-7
[6] = HT-29 monoculture, 20 μM, read-out: cancer cell viability (%), Monocult. HT-29
[7] = co-culture 1:5 HT-29/THP-1, 20 μM, 24 h, read-out: cancer cell viability (%), 1:5 HT-29/THP-1, 24 h
[8] = co-culture 1:5 HT-29/THP-1, 20 μM, 48 h, read-out: cancer cell viability (%), 1:5 HT-29/THP-1, 48 h
[9] = co-culture 2:1 HT-29/THP-1, 20 μM, 24 h, read-out: cancer cell viability (%), 2:1 HT-29/THP-1, 24 h
[10] = co-culture 2:1 HT-29/THP-1, 20 μM, 48 h, read-out: cancer cell viability (%), 2:1 HT-29/THP-1, 48 h
[11] = co-culture (1:5) HT-29/THP-1, 24 h, 20 μM
[12] = co-culture (2:1) HT-29/THP-1, 24 h, 20 μM

T1 sequence (Q9NZQ7 19-290): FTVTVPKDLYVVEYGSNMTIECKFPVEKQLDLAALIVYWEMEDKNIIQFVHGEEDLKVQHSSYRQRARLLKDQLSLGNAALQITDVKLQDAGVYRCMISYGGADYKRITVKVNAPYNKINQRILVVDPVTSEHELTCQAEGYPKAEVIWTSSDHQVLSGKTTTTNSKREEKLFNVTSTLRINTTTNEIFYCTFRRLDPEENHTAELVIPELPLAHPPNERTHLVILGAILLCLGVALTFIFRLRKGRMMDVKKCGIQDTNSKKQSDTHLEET

Compound	IC50 ([1]; A549, MTT, 48 h of treatment) [µM]	SI (A-549) (IC50HEK293/A-549) [1]	IC50 [2, 5] [µM]	SI (MCF-7) [2]	morphological changes of HT-29 cells (HT-29 cells; 20 μM)	viability at 20 µM (HT-29 cells; [6]) [%]	viability at 20 µM (HT-29 cells; [7]) [%]	viability at 20 µM (HT-29 cells; [8]) [%]	viability at 20 µM (HT-29 cells; [9]) [%]	viability at 20 µM (HT-29 cells; [10]) [%]	Total PD-L1 (%) (PD-L1 [3]; HT-29, 20 µM)	Total PD-L1 (%) (PD-L1 [4])	inhibition of cell viability (HT-29) (HT-29 cells; [11]) [%]	inhibition of cell viability (HT-29) (HT-29 cells; [12]) [%]	FYN protein expression (Western blot quantification) (Fyn)	inhibition at 20 µM (PD-L1 [3]; HT-29, HT-29, 20 µM) [%]	other results
Cc1c(COc2ccc(CN3CCCCC3C(=O)O)cc2Br)cccc1-c1ccccc1 (centres unmarked) [BMS-8, reference compound]	6 ± 1	10	20 ± 3	3	retained this epithelial nature, resulting in an increased and brighter cytosolic granulation	102 ± 23	88 ± 3	102 ± 12	106 ± 10	101 ± 3	82 ± 21	96 ± 29					
COc1ccc(COc2cccc(NC(=O)Nc3ccc(F)cc3)c2)cc1 [Compound 2]	3.4 ± 0.8	>29	0.17 ± 0.03	>580	less confluent cultures with a few elongated fibroblast-like appearance cells	89 ± 7	80 ± 4	102 ± 16	83 ± 5	95 ± 5	71 ± 15	107 ± 13	20	20	101	~50	
COc1ccc(COc2cccc(NC(=O)Nc3ccc(Br)cc3)c2)cc1 [Compound 8]	1.6 ± 0.8	>62	1.3 ± 0.4	>77	less confluent cultures with a few elongated fibroblast-like appearance cells	86 ± 9	83 ± 13	106 ± 8	95 ± 16	92 ± 20	40 ± 2	80 ± 7				~60	
COc1ccc(COc2cccc(NC(=O)Nc3ccc(OC)cc3)c2)cc1 [Compound 11]	12 ± 1	>9	> 200		less confluent cultures with a few elongated fibroblast-like appearance cells	95 ± 21	86 ± 4	119 ± 14	88 ± 3	85 ± 11	118 ± 3	135 ± 18	20	20	109		cancer cell viability (%), 2:1 HT-29/THP-1, 48 h (HT-29 cells; co-culture 2:1 HT-29/THP-1, 20 μM, 48 h): active; inhibition rate of PD-L1 (PD-L1 [3]; HT-29, 20 µM): no inhibitory effect
COc1ccc(COc2cccc(NC(=O)Oc3ccccc3)c2)cc1 [Compound 14]		>27		>5	slight loss of cell-to-cell contact and the appearance of clustered cells with irregular surfaces	82 ± 4	90 ± 6	97 ± 5	88 ± 9	85 ± 14	68 ± 5	141 ± 1			102		IC50 ([1]; A549, 48 h): 3.7 ± 0.5 µM; IC50 ([2]; MCF7, read-out: IC50 (μM) MCF-7): 20 ± 9 µM; inhibition at 20 µM (PD-L1 [3]; HT-29, 20 µM): ~40%
